Measured values from ChEMBL document CHEMBL4665892, “Structural Basis for the Binding Mechanism of Human Serum Albumin Complexed with Cyclic Peptide Dalbavancin” (J Med Chem, 2020).

Assay: Protein binding in human plasma
Type: ADME, cell-free
Conditions: read-out: PPB (converted)

## CCCCCCCCCC(=O)N[C@@H](Cc1c[nH]c2ccccc12)C(=O)N[C@H](CC(N)=O)C(=O)N[C@@H](CC(=O)O)C(=O)N[C@@H]1C(=O)NCC(=O)N[C@@H](CCCN)C(=O)N[C@@H](CC(=O)O)C(=O)N[C@H](C)C(=O)N[C@@H](CC(=O)O)C(=O)NCC(=O)N[C@H](CO)C(=O)N[C@@H]([C@H](C)CC(=O)O)C(=O)N[C@@H](CC(=O)c2ccccc2N)C(=O)O[C@@H]1C
  fraction unbound: 0.15
